Assay results taken from patent publication US20230381139A1, “METHODS OF TREATING AND/OR PREVENTING ALZHEIMER’S DISEASE WITH R-CARVEDILOL” (priority 2020, published 2023).

Key:
[1] = test system: 5×FAD+/− hippocampal CA1 neurons; assay: In vivo two-photon Ca2+ imaging of CA1 neurons (neuronal hyperactivity) in 5×FAD+/− mice; set-up: species or system mouse
Procedure: (§1) Adult genetically engineered mice, 5×FAD^+/− (Oakley et al., 2006), RyR2-E4872Q^+/− (EQ^+/−) (Chen et al., 2014), 5×FAD^+/−/RyR2-E4872Q^+/− (5×FAD^+/−/EQ^+/−), and wildtype (WT) littermates of both sexes were used. R-carvedilol (R-CV) (at doses of 0.8, 1.6 or 3.2 mg/kg/day), racemic carvedilol (3.2 mg/kg/day), and vehicle control (DMSO) were delivered to 5×FAD^+/− mice in drinking water for one month, starting at different ages before (2-3 months old) or after (3-4 months old) the occurrence of AD pathologies (Oakley et al., 2006). To assess the effects of genetically and pharmacologically limiting RyR2 open time on the prevention and rescue of AD deficits in different stages (early, moderate, and late) of AD progression, animals at different ages (from 2-15 months) were used. As reported (Oakley et al., 2006), there was an age-dependence of AD progression in the 5×FAD^+/− mice. No sex-dependent differences in AD progression in these mice was observed. For 2-photon Ca^2+ imaging experiments, 5×FAD, RyR2 WT, and RyR2 mutant mice were cross-bred with the heterozygous Thy1-GCaMP6f transgenic mice (Chen et al., 2012; Chen et al., 2013) (GP5.17, JAX 025393) to express the GCaMP6f Ca^2+ sensing probe (driven by the Thy1 promotor) in hippocampal neurons in each of the genotypes used.
To determine whether limiting RyR2 open time can suppress AD-associated neuronal hyperactivity in vivo, double heterozygous 5×FAD^+/−/E4872Q^+/− mice were crossed with the heterozygous Thy-1 GCaMP6f^+/− transgenic mice (GP5.17, JAX 025393) to introduce the GCaMP6f^+/− transgene into each of the four genotypes (driven by the Thy1 promotor). In vivo two-photon imaging of GCaMP6f-expressing CA1 pyramidal neurons in each of the four genotypes to monitor spontaneous Ca^2+ transients was performed.
Neuronal hyperactivity has been reported in anesthetized AD model mice in vivo using two-photon Ca^2 + imaging (Busche et al., 2008; Busche et al., 2012; Lerdkrai et al., 2018; Busche et al., 2019). To facilitate comparison, the same approach described originally by Busche et al. and used by others in the field (Busche et al., 2012; Busche et al., 2008; Delekate et al., 2014; Eichhoff and Garaschuk, 2011; Kim et al., 2016; Takano et al., 2007; Zott et al., 2019) was employed. Craniotomy was performed according to the protocol reported previously (Busche, 2018; Busche et al., 2012; Busche et al., 2008) with some modifications. […] The body temperature was monitored and controlled at 36.5-37.5° C. during the entire surgery and imaging procedure. […] Besides the core body temperature, the respiratory and pulse rate were continuously monitored (MouseOx plus. STARR Life Science Corp.). […]

[2] = test system: subiculum pyramidal neurons of 5×FAD+/− mice; assay: Nissl staining, neuronal cell loss in 5×FAD+/− mice; format: in vivo, mouse; conditions: 6-7 months old 5×FAD+/− mice, pre-treatment 3.2 mg/kg/day for 1 month; vs DMSO
Procedure: as §1, with “genotypes used. […]” for “genotypes used.”

[3] = 3.2 mg/kg/day for one month, started at 2-3 or 3-4 months of age (both ages), vs vehicle pre-treated 5×FAD+/− mice

## COc1ccccc1OCCNC[C@@H](O)COc1cccc2[nH]c3ccccc3c12 [R-carvedilol, R-(+)-carvedilol]
[1]; [3]
  fraction of hyperactive neurons: significantly lower
  mean frequency of spontaneous Ca2+ transients: significantly lower
  overall spontaneous neuronal activity (cumulative probability analysis): significantly lower
[1]; 3.2 mg/kg/day in drinking water for one month, started at 2-3 months (before AD pathology) or 3-4 months (after) of age, vs DMSO vehicle
  neuronal hyperactivity of 5×FAD+/− hippocampal CA1 neurons in vivo: prevented and rescued
[2]
  subiculum neuronal cell loss: protected against
